Article PMC11257039, “VCP activator reverses nuclear proteostasis defects and enhances TDP-43 aggregate clearance in multisystem proteinopathy models” (The Journal of Clinical Investigation, 2024)
“And” between values parts separate entries of the source, which are not always exact repeats. Equal entries are not always repeated.

Key:
[1] = target: T1, recombinant WT VCP (Mus musculus, UniProt Q01853); test: Kinase-Glo ATPase assay, recombinant WT VCP; assay type: biochemical; details: for ATP consumed: WT VCP no UN
T1 construct: in the full-length recombinant VCP; His (N); made in house; host or cells: Escherichia coli BL21-CodonPlus (DE3)-RIL
T1 sequence (Q01853 whole entry): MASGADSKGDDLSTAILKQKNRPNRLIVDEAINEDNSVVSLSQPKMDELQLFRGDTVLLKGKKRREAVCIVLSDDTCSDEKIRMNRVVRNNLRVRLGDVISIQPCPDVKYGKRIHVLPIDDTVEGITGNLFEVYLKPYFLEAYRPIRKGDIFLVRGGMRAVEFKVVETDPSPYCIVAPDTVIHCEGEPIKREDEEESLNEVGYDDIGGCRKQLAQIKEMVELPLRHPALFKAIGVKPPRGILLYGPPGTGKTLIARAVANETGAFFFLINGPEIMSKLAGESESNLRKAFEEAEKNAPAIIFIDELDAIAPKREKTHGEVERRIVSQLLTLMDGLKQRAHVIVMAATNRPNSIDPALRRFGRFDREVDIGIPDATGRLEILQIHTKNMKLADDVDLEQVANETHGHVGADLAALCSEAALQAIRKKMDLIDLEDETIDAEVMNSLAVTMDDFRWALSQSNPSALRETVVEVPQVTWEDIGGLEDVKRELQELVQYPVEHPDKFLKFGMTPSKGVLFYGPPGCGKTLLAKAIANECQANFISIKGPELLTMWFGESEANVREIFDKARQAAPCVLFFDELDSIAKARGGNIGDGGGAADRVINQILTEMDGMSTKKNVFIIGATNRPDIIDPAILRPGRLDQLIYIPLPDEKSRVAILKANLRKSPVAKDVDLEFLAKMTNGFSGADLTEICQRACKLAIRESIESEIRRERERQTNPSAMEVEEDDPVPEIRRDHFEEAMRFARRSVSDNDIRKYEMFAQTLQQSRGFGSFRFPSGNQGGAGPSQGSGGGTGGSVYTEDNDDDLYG
Protocol: (§1) Experiments with varied activator concentration and screening were measured using the Kinase-Glo Luminescent Kinase Assay (Promega). Reactions were incubated at 25°C for 1 hour then reduced to 4°C in a thermocycler consisting of 50 nM of recombinant VCP with or without 50 nM UFD1/NPLOC4 in 50 uL ATPase buffer (25 mM HEPES, pH 7.5, 100 mM NaCl, 10 mM MgCl2) at 2% DMSO with 62.5 μM ATP and a range of activator concentrations (Gibco, Sigma-Aldrich). Equal volumes of reaction and Kinase-Glo reagent were incubated for 20 minutes at room temperature in a 96 well white flat bottom plate (Corning). Luminescence was measured in a microplate reader (Spark 20M, Tecan).
(§2) Experiments with varied compound concentration were fit to a 3-parameter dose curve with asymmetric profile likelihood 95% confidence intervals in GraphPad Prism 9 (GraphPad). Experiments with varied ATP concentration were fit to a Michaelis-Menten model with asymmetric profile likelihood 95% confidence intervals. Significance was determined for experiments with fixed compound or fixed ATP concentration using a linear mixed-effects model.

[2] = target: T2, WT VCP + Ufd1/Nploc4 (Mus musculus, UniProt Q01853); test: Kinase-Glo ATPase assay, WT VCP with UFD1/NPLOC4 (UN); assay type: biochemical; details: for ATP consumed: WT VCP with UN
T2 construct: in the full-length recombinant VCP; His (N); made in house; host or cells: E. coli (VCP: BL21-CodonPlus (DE3)-RIL; UFD1 and NPLOC4: E. coli (DE3), purified by the MD Anderson core)
T2 sequence (Q01853 whole entry): as above
T2 sequence (Q92890 whole entry partner): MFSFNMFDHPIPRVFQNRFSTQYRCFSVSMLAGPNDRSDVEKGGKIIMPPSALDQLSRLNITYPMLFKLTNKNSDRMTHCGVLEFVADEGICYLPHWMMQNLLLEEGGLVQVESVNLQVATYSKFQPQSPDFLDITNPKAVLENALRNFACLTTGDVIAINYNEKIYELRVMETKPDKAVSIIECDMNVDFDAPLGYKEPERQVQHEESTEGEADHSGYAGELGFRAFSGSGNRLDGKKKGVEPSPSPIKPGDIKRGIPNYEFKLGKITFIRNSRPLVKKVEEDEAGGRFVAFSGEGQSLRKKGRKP
T2 sequence (Q8TAT6 whole entry partner): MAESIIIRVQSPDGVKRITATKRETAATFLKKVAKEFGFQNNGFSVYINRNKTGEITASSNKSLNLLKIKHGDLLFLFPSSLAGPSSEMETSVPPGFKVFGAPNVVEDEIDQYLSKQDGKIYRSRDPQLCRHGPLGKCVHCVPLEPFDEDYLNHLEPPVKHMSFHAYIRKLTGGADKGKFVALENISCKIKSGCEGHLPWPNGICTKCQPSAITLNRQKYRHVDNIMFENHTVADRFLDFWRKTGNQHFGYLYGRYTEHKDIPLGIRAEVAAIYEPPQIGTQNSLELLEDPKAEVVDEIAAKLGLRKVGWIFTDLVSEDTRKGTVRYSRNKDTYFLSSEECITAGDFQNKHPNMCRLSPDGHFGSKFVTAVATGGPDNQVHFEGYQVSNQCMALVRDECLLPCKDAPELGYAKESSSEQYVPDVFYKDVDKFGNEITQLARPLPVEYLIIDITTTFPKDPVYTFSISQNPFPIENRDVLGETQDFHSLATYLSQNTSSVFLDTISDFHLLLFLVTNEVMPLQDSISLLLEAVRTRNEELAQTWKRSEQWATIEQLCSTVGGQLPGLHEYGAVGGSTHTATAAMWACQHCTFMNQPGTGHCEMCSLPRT
Protocol: as §1, §2

[3] = target: T1, recombinant WT VCP; test: MESG-PNP (EnzCheck) phosphate release ATPase assay, WT VCP; assay type: biochemical; details: for ATPase activity v0/ET: 25 μM compound, replicate experiments
Protocol: (§3) All other experiments were performed using the EnzCheck phosphatase assay kit (Molecular Probes). ATPase activity was measured in a 96-well flat bottom plate (Thermo Fisher Scientific). 50 nM VCP was incubated in 100 μL ATPase buffer with 2% DMSO with 25 μM compound and various ATP concentrations. The absorbance at 360 ± 5 nm was measured for more than 15 minutes at 25°C. Phosphate release was quantified based on a phosphate standard curve performed on the same plate. Initial enzyme velocity was determined by fitting the linear portion of the data to a linear regression model.
as §2

[4] = tested on: WT HeLa cells expressing GFP-TDP-4FL; test: Flow cytometry of GFP-TDP-4FL integrated fluorescence, WT HeLa; assay type: cell-based; details: for Integrated Fluorescence WT (Normalized to CHX): replicate values
Protocol: Drug treatments were performed on neurons 7 days after lentiviral transduction and 14 days after neuronal induction. HeLa cells were collected using trypsin and pelleted at 1000g for 3 minutes. Cell pellets were resuspended in colorless DMEM (Invitrogen) supplemented with 2% FBS and filtered through a BD tube with cell strainer (BD Biosciences) for flow cytometry analysis on LSR II (BD Biosciences). Data analysis was performed on FlowJo v10 software. Integrated fluorescence intensity was determined by multiplying percent positive GFP and GFP median fluorescence values.

[5] = tested on: luciferase; test: Luciferase counter assay: Kinase-Glo with 62.5 μM ATP without recombinant VCP; assay type: biochemical; details: for measured ATP consumed (nmol) without VCP: replicate values
Protocol: as §1
(A-D) Measured ATP as determined by a Kinase-Glo assay of 62.5μM ATP in the presence of increasing concentrations of compound without recombinant VCP present. (for all panels: n=3 with 4 technical replicates per experiment, points are expressed as beta ± SE, linear mixed effects model, P>0.05 for each […]
(§4) (1 picture or pasted object on this page, not shown here)

[6] = target: T3, A232E VCP (Mus musculus, UniProt Q01853, A232E); test: MESG-PNP ATPase assay, recombinant A232E VCP; assay type: biochemical; details: VCP Mutation A232E; replicate values
T3 construct: in the full-length recombinant VCP; His (N); made in house; host or cells: Escherichia coli BL21-CodonPlus (DE3)-RIL
T3 sequence (Q01853 whole entry A232E): as the sequence (Q01853 whole entry) above, with A232E counted along it
Protocol: as §3
(§5) Figure S8. VCP activators variable effect on ATPase activity of MSP associated mutations in recombinant VCP. ATPase activity of 50 nM recombinant VCP protein was measured using an MESG-PNP assay upon treatment with 25 μM compound versus 2% DMSO control at 1mM ATP for WT (also shown in Fig. 5c), A232E, R155H, and R159H (n=3 with 3 technical replicated per experiment; points are expressed as beta ± SE, linear effects model: *P<0.05,**P<0.01; ***P<0.001; ****P<0.0001).

[7] = target: T4, R155H VCP (Mus musculus, UniProt Q01853, R155H); test: MESG-PNP ATPase assay, recombinant R155H VCP; assay type: biochemical; details: VCP Mutation R155H; replicate values
T4 construct: in the full-length recombinant VCP; His (N); made in house; host or cells: Escherichia coli BL21-CodonPlus (DE3)-RIL
T4 sequence (Q01853 whole entry R155H): as the sequence (Q01853 whole entry) above, with R155H counted along it
Protocol: as §3, §5

[8] = target: T5, R159H VCP (Mus musculus, UniProt Q01853, R159H); test: MESG-PNP ATPase assay, recombinant R159H VCP; assay type: biochemical; details: VCP Mutation R159H; replicate values
T5 construct: in the full-length recombinant VCP; His (N); made in house; host or cells: Escherichia coli BL21-CodonPlus (DE3)-RIL
T5 sequence (Q01853 whole entry R159H): as the sequence (Q01853 whole entry) above, with R159H counted along it
Protocol: as §3, §5

[9] = tested on: WT HeLa cells expressing TDP-4FL; test: Immunofluorescence of TDP-4FL inclusion morphology, WT HeLa; assay type: cell-based; details: for TDP-4FL inclusion size and morphology upon proteasome inhibition: 4 μM MG132, 1 μM ixazomib or 1 μM epoxomicin, 3 or 6 hours
Protocol: HeLa Cells were plated onto glass coverslips and transfected with TDP-4FL using Fugene HD for 24 hours. Cells were fixed with 4% paraformaldehyde (Electron Microscopy Sciences), permeabilized with 0.1% Triton-X (Thermo Fisher Scientific), and blocked with 2% FBS DPBS. Primary antibodies were diluted in 2% FBS DPBS. Cells were stained with 300 nM DAPI, and coverslips were mounted onto glass slides using ProLong Glass Antifade Mountant (Thermo Fisher Scientific). Confocal images were obtained using a Leica TCS SPE laser scanning confocal microscope.
(A) High power magnification immunofluorescence confocal images of HeLa cells expressing TDP-4FL stained for myc-TDP (green) Scale bar, 5 µm. […]
(C) Representative confocal microscopy immunofluorescence confocal images of HeLa cells […]
yellow represent cells that were categorized as anisosome morphology. Nuclei outline in white represent cells that were categorized as aggregate morphology. Cells with approximately more than 50% anisosome inclusions were categorized as anisosome morphology whereas cells with approximately more than 50% aggregate-like inclusions were categorized as aggregate morphology. Binucleate cells were excluded from the total counts. Scale bar, 10 µm.
as §4

SMILES: Clc1ccc2[nH]c3c(N4CCC5(CC4)OCCO5)ncnc3c2c1 [UP158]
- EC50 ([1]; EC50 (μM) (95% CI), WT VCP without UN, 50 nM VCP, 62.5 μM ATP, 2% DMSO): 2.41 µM
- ATP consumed ([1]; 0.78 μM compound): 1.347 nmol and 0.994 nmol and 1.148 nmol
- ATP consumed ([1]; 1.56 μM compound): 1.354 nmol and 1.059 nmol and 1.210 nmol
- ATP consumed ([1]; 3.13 μM compound): 1.498 nmol and 1.151 nmol and 1.481 nmol
- ATP consumed ([1]; 6.25 μM compound): 1.483 nmol and 1.304 nmol and 1.494 nmol
- ATP consumed ([1]; 12.5 μM compound): 1.656 nmol and 1.339 nmol and 1.428 nmol
- ATP consumed ([1]; 25 μM compound): 1.637 nmol and 1.369 nmol and 1.624 nmol
- ATP consumed ([1]; 50 μM compound): 1.715 nmol and 1.360 nmol and 1.703 nmol
- ATP consumed ([1]; 100 μM compound): 1.794 nmol and 1.361 nmol and 1.605 nmol
- recombinant WT VCP ATPase activity ([1]; in vitro validation of 106 screen hits): significantly increased
- increase of VCP activity ([1]; maximum, WT VCP without UN): 50%
- change in EC50 with UN compared to without UN [2]: significantly increased
- change in maximum percent activity with UN compared to without UN [2]: stayed the same
- EC50 ([2]; WT VCP + Ufd1/Nploc4, 1:1 molar ratio): 14.3 µM
- ATP consumed ([2]; 1.56 μM compound): 1.283 nmol and 1.271 nmol and 1.261 nmol
- ATP consumed ([2]; 3.13 μM compound): 1.368 nmol and 1.194 nmol and 1.381 nmol
- ATP consumed ([2]; 6.25 μM compound): 1.593 nmol and 1.386 nmol and 1.366 nmol
- ATP consumed ([2]; 12.5 μM compound): 1.674 nmol and 1.527 nmol and 1.645 nmol
- ATP consumed ([2]; 25 μM compound): 1.721 nmol and 1.705 nmol and 1.784 nmol
- ATP consumed ([2]; 50 μM compound): 1.865 nmol and 1.744 nmol and 1.853 nmol
- ATP consumed ([2]; 100 μM compound): 1.867 nmol and 1.844 nmol and 1.895 nmol
- kcat (nmol Pi / nmol VCP / s) (95% CI) ([3]; 25 μM activator): 0.356 (0.320, 0.396) nmol Pi / nmol VCP / s
- increase in kcat ([3]; 25 μM activator, versus DMSO): more than 50%
- ATPase activity v0/ET ([3]; [ATP] 62.5 μM): 0.191 nmol Pi / nmol VCP / s and 0.186 nmol Pi / nmol VCP / s and 0.163 nmol Pi / nmol VCP / s
- ATPase activity v0/ET ([3]; [ATP] 125 μM): 0.237 nmol Pi / nmol VCP / s and 0.241 nmol Pi / nmol VCP / s and 0.210 nmol Pi / nmol VCP / s
- ATPase activity v0/ET ([3]; [ATP] 250 μM): 0.277 nmol Pi / nmol VCP / s and 0.260 nmol Pi / nmol VCP / s and 0.266 nmol Pi / nmol VCP / s
- ATPase activity v0/ET ([3]; [ATP] 500 μM): 0.330 nmol Pi / nmol VCP / s and 0.296 nmol Pi / nmol VCP / s and 0.298 nmol Pi / nmol VCP / s
- ATPase activity v0/ET ([3]; [ATP] 1000 μM): 0.372 nmol Pi / nmol VCP / s and 0.331 nmol Pi / nmol VCP / s and 0.333 nmol Pi / nmol VCP / s
- Integrated Fluorescence WT (Normalized to CHX) ([4]; 5μM compound with CHX): 0.937 and 0.971 and 1.133 and 0.982 and 1.082 and 0.863
- Integrated Fluorescence WT (Normalized to CHX) ([4]; 20μM compound with CHX): 1.023 and 1.038 and 1.143 and 1.051 and 0.869 and 0.804
- clearance of GFP-TDP-4FL aggregates (integrated fluorescence) ([4]; MG132, then CHX with 5 or 20 μM activator): did not have a significant effect
- luciferase activity (measured ATP without VCP) ([5]; 62.5 μM ATP, increasing concentrations of compound): did not inhibit luciferase activity
- measured ATP consumed (nmol) without VCP ([5]; compound 6.25 μM): 3.401 nmol and 3.236 nmol and 3.539 nmol and 3.366 nmol and 3.357 nmol and 3.469 nmol and 3.543 nmol and 3.577 nmol and 3.421 nmol and 3.118 nmol and 3.388 nmol
- measured ATP consumed (nmol) without VCP ([5]; compound 12.5 μM): 3.307 nmol and 3.430 nmol and 3.284 nmol and 3.618 nmol and 3.378 nmol and 3.515 nmol and 3.417 nmol and 3.480 nmol and 3.503 nmol and 3.589 nmol and 3.525 nmol and 3.323 nmol
- measured ATP consumed (nmol) without VCP ([5]; compound 25 μM): 3.304 nmol and 3.386 nmol and 3.409 nmol and 3.378 nmol and 3.414 nmol and 3.361 nmol and 3.370 nmol and 3.512 nmol and 3.476 nmol and 3.518 nmol and 3.523 nmol and 3.257 nmol
- measured ATP consumed (nmol) without VCP ([5]; compound 50 μM): 3.338 nmol and 3.481 nmol and 3.508 nmol and 3.447 nmol and 3.274 nmol and 3.450 nmol and 3.266 nmol and 3.477 nmol and 3.478 nmol and 3.313 nmol and 3.466 nmol and 3.330 nmol
- measured ATP consumed (nmol) without VCP ([5]; compound 100 μM): 3.162 nmol and 3.374 nmol and 3.402 nmol and 3.401 nmol and 3.130 nmol and 3.262 nmol and 3.295 nmol and 3.438 nmol and 3.458 nmol and 3.582 nmol and 3.728 nmol and 3.332 nmol
- ATPase activity, nmol Pi / nmol VCP / s [6]: 1.493 nmol Pi / nmol VCP / s and 1.756 nmol Pi / nmol VCP / s and 2.037 nmol Pi / nmol VCP / s
- ATPase activity, nmol Pi / nmol VCP / s [7]: 1.189 nmol Pi / nmol VCP / s and 1.361 nmol Pi / nmol VCP / s and 1.473 nmol Pi / nmol VCP / s
- ATPase activity, nmol Pi / nmol VCP / s [8]: 1.332 nmol Pi / nmol VCP / s and 1.432 nmol Pi / nmol VCP / s and 1.240 nmol Pi / nmol VCP / s

SMILES: CC[C@H](C)[C@H](NC(=O)[C@H]([C@@H](C)CC)N(C)C(C)=O)C(=O)N[C@H](C(=O)N[C@@H](CC(C)C)C(=O)[C@@]1(C)CO1)[C@@H](C)O [epoxomicin]
- TDP-4FL inclusion size and morphology upon proteasome inhibition [9]: generating larger TDP-4FL inclusions

SMILES: CC(C)C[C@H](NC(=O)CNC(=O)c1cc(Cl)ccc1Cl)B(O)O [ixazomib]
- TDP-4FL inclusion size and morphology upon proteasome inhibition [9]: generating larger TDP-4FL inclusions

SMILES: Cc1cc2c(C(N)=O)cccc2n1-c1nc2c(c(NCc3ccccc3)n1)COCC2 [CB5083]
- TDP-4FL aggregate formation [9]: no effect on TDP-4FL aggregate formation
- TDP-4FL inclusion morphology after recovery [9]: residual irregularly shaped intranuclear TDP-4FL aggregates
